Here are results for two compounds from paper PMC11956005 (Journal of Medicinal Chemistry, 2025).

The conditions of series [1]: native GLP-1; cited from earlier work.
Series [2] relates to db/db mice. Nature of the series: Blood glucose control after a single subcutaneous dose in db/db mice. It counts as in vivo, mouse. The settings on record: single s.c. dose, 72 h postinjection.

Where no end group is shown, it is not given here. [ ]: non-standard residue; d: D form. The star is where a group is joined. X1 = CCCCCCCCCCCCCCCC(=O)N[C@@H](CCC(=O)NCCCC[C@H](NC(=O)CCOCCOCCOCCOCCNC(=O)CNC(=O)CCN1C(=O)CC(*)C1=O)C(=O)NCCOCCOCCOCCOCCC(=O)N[C@@H](CCCCNC(=O)CC[C@H](NC(=O)CCCCCCCCCCCCCCCCC(=O)O)C(=O)O)C(=O)OC)C(=O)O; Aib = CC(C)(N)C(=O)O

Regarding `CC[C@H](C)[C@H](NC(=O)[C@H](Cc1ccccc1)NC(=O)[C@H](CCC(=O)O)NC(=O)[C@H](CCCCN)NC(=O)[C@H](C)NC(=O)[C@H](C)NC(=O)[C@H](CCC(N)=O)NC(=O)CNC(=O)[C@H](CCC(=O)O)NC(=O)[C@H](CC(C)C)NC(=O)[C@H](Cc1ccc(O)cc1)NC(=O)[C@H](CO)NC(=O)[C@H](CO)NC(=O)[C@@H](NC(=O)[C@H](CC(=O)O)NC(=O)[C@H](CO)NC(=O)[C@@H](NC(=O)[C@H](Cc1ccccc1)NC(=O)[C@@H](NC(=O)CNC(=O)[C@H](CCC(=O)O)NC(=O)[C@H](C)NC(=O)[C@@H](N)Cc1c[nH]cn1)[C@@H](C)O)[C@@H](C)O)C(C)C)C(=O)N[C@@H](C)C(=O)N[C@@H](Cc1c[nH]c2ccccc12)C(=O)N[C@@H](CC(C)C)C(=O)N[C@H](C(=O)N[C@@H](CCCCN)C(=O)NCC(=O)N[C@@H](CCCN=C(N)N)C(=O)NCC(=O)O)C(C)C` [GLP-1, glucagon-like peptide-1], the intravenous half-life in series [1] is 1.5 to 2 min.
As to “H[Aib]EGTFTSDVSSYLEGQAAKEFIAWLVRGRGGGGSGGGGSGGGGSGC(X1) [TE-8131]”, the “blood sugar reduction (Δglucose from baseline)” value in series [2] was -8.2 ± 1.4 mmol/L.
